Results on three compounds are retold here after publication PMC11224357, “Green, facile synthesis and evaluation of unsymmetrical carbamide derivatives as antimicrobial and anticancer agents with mechanistic insights” (Scientific Reports, 2024).

Values after ≈ are worked out from the molar mass of the structure shown.

In general, IC50 refers to the concentration that inhibits the measured activity by half. Read a high IC50 as a need for much substance. Usually melting point stands for the temperature of the solid-liquid transition.

Series [1] relates to Bacillus subtilis. The series can be described thus: MIC by microdilution (CLSI). The conditions noted are these: read-out: Minimum inhibitory concentration (MIC). Type of series: cell-based. Here is the method:
(§1) In brief, a defined weight for each selected compound was dissolved in dimethylsulphoxide (DMSO) and used as a stock solution[29].
For orientation: In broth dilution the organism is exposed to a series of concentrations in liquid medium.

Series [2] has as its system Klebsiella pneumonia. The series can be described thus: MIC by microdilution (CLSI). As to conditions: Klebsiella pneumoniae, read-out: Minimum inhibitory concentration (MIC). Type of series: cell-based. Here is the method: as §1
The test system of series [3] is Pseudomonas aeruginosa. The series can be described thus: MIC by microdilution (CLSI). Type of series: cell-based. As to conditions: read-out: Minimum inhibitory concentration (MIC). The method, then: as §1
In series [4] the test system is Staphylococcus aureus. The series can be described thus: MIC by microdilution (CLSI). The format is cell-based. As to conditions: read-out: Minimum inhibitory concentration (MIC). The method, then: as §1
Series [5] relates to MCF-7 (human breast cancer). The series can be described thus: MTT cytotoxicity assay. Type of series: cell-based. As to conditions: MCF-7, 48 h; for IC50: MTT; for cytotoxicity at 100 µM: MCF7, single dose 100 µM, read-out: Cytotoxicity (%). The method, then:
The MTT 3-(4,5-dimethylthiazol-2-yl)-2,5-diphenyl-tetrazolium bromide (Bio Basic Canada Inc. Toronto, Canada) assay was used to assess cell viability. The procedures were carried out in a biosafety class II sterile laminar air flow cabinet (Baker, SG403INT; Sanford, ME, USA). […] Cells were seeded at a density of (10^4 cells/well) into 96-well micro titer polypropylene plates and left to adhere for 24 h. […] After 48 h of incubation, 40 µL of MTT salt ([…]) was applied to each well. […] Instead of the tested substances, the medium was applied to the untreated cells (negative control). […] The testing substance was dissolved in dimethylsulfoxide (DMSO), and its final concentration in the cells was less than 0.2%. The solvent concentration was the same for all medications and between the control and drug treatments at the same dilution.
(Formazan colour is commonly taken as a measure of viable cells.)

Series [6] concerns MCF-7 cells. The series can be described thus: Annexin V-FITC/PI necrosis cell apoptosis assay. Type of series: cell-based, human. As to conditions: % of population. Here is the method: (§2) The levels of necrosis and apoptosis in cells were determined by CytoFLEX Flow Cytometer. A total of 1 × 10^6 cells were washed in 1 × DPBS, and then were centrifuged at 500 × ϲ for 5 min. 1 μL of annexin V-FITC solution and 5 μL of dissolved PI were added to 100 μL of the cell suspensions that kept on ice and were incubated for 15 min in the dark. Cells were then analyzed by the CytoFLEX Flow Cytometer (Beckman Coulter Life Sciences, USA) and the percentage of apoptotic cells was determined using CytExpert Software.

Series [7] relates to Candida albicans. The series can be described thus: Agar well diffusion. The format is cell-based. As to conditions: 20 µg/mL, read-out: Inhibition Zone. An excerpt: (§3) The antimicrobial efficiency of the synthesized unsymmetrical carbamide derivatives was screened using standard clinical pathogens derived from Department of Microbiology and Immunology, Faculty of Medicine (Boys), Al-Azhar University. The tested microbial pathogens used in this study were as follows, two Gram-positive bacteria (Bacillus subtilis, Staphylococcus aureus), two Gram-negative bacteria (Pseudomonas aerginousea, klebsiella pneumoniae) and two fungi (Candida albicans, Aspergillus fumgitus). Before each antimicrobial examination, pre-activation of each microbial pathogen was implemented using specific growth conditions. For bacterial ones, preinoculum was prepared using Nuitrent broth medium (Codalab, Spain) at 37 °C for 24 h. while the fungal pathogens were activated using Potato Dextrose broth (Codalab, Spain) at 28 °C for 48 h. Consequently, each tested pathogen justified its inoculum size based on Colony Forming Units (CFU) to be closed to […] during all antimicrobial tests.
In general terms: In agar diffusion tests the substance spreads into inoculated agar from a disc or well.

The test system of series [8] is Aspergillus fumagitus. The series can be described thus: Agar well diffusion. Type of series: cell-based. As to conditions: Aspergillus fumagitus; 20 µg/mL; read-out: Inhibition Zone.
Excerpt: as §3

Series [9] concerns Bacillus subtilis. The series can be described thus: Lipid peroxidation (LPO) MDA-TBA assay of bacterial cell membrane. The format is cell-based. The conditions noted are these: overnight incubation, MDA-TBA at 532 nm. Here is the method:
(§4) Lipid peroxidation of bacterial cell membranes was a remarkable tool indicating the oxidative stress that was caused by the tested compounds. The lipid peroxidation colorimetric assay kit was used for this purpose. […]. […] Briefly, each tested compound was incubated with each bacterial pathogen overnight under shaking and then 1 mL of the treated bacterial cell was vigorously mixed with 300 μL MDA lysis buffer at 4 °C. The addition of 3 μL of Butylated hydroxytoluene (BHT) was then performed to avoid the pigment interference that resulted from the decomposition of lipophilic peroxides. Thereafter, samples were separated by centrifugation at 8000 rpm for 10 min, and the insoluble substances were discarded. Finally, 200 μL of the clear supernatant was mixed with 600 μL of the TBA solution at 95 °C for 60 min. Samples were then cooled at room temperature, and the developed pink color was determined at 532 nm using a Spectrophotometer (Agilent Cary 100, Germany). The positive control was also prepared using 5% of Hydrogen peroxide and treated each bacterial pathogen for 20 min. The noticed increase in the lipid peroxidation efficiency was expressed from the following equation: Lipidperoxidationefficiency%=NC-NS/NC×100. where NC is the absorbance of lipid peroxidation in the untreated bacterial cells and NS is the absorbance of lipid peroxidation in the treated bacterial cells.

Series [10] relates to Klebsiella pneumonia. The description is as above. The format is cell-based. As to conditions: overnight incubation, MDA-TBA at 532 nm. The method, then: as §4
In series [11] the test system is Pseudomonas aeruginosa. The series is described as above. As to conditions: overnight incubation, MDA-TBA at 532 nm. Type of series: cell-based. Here is the method:
as §4

Series [12] relates to Staphylococcus aureus. Described as above. The format is cell-based. As to conditions: overnight incubation, MDA-TBA at 532 nm. Here is the method: as §4
Series [13] relates to Candida albicans. The series can be described thus: MIC by microdilution (CLSI). Type of series: cell-based. The conditions noted are these: read-out: Minimum inhibitory concentration (MIC). Here is the method: (§5) For this purpose, serial dilution of the potent compounds was carried out to obtain the desired concentrations (i.e. 10–400 µg/mL). In brief, a defined weight for each selected compound was dissolved in dimethylsulphoxide (DMSO) and used as a stock solution[29]. The determination of the MIC value for each targeted compound was known as the lowest concentration of each sample that yielded a minimum number of colony-forming units (CFU) compared to the untreated samples[28].

Series [14] concerns Aspergillus fumagitus. The series can be described thus: MIC by microdilution (CLSI). The conditions noted are these: read-out: Minimum inhibitory concentration (MIC). Type of series: cell-based. The method, then:
as §5

The test system of series [15] is Bacillus subtilis. The series can be described thus: Agar well diffusion. Type of series: cell-based. As to conditions: 20 µg/mL, read-out: Inhibition Zone.
Excerpt: as §3, with “For bacterial ones, preinoculum was prepared using Nuitrent broth medium (Codalab, Spain) at 37 °C for 24 h. while the fungal pathogens were activated using Potato Dextrose broth (Codalab, Spain) at 28 °C for 48 h.” left out

Series [16] deals with Klebsiella pneumonia. The series can be described thus: Agar well diffusion. As to conditions: Klebsiella pneumoniae; Klebsiella pneumonia; 20 µg/mL; read-out: Inhibition Zone. Type of series: cell-based.
Excerpt: as §3, with “For bacterial ones, preinoculum was prepared using Nuitrent broth medium (Codalab, Spain) at 37 °C for 24 h. while the fungal pathogens were activated using Potato Dextrose broth (Codalab, Spain) at 28 °C for 48 h.” left out

Series [17] has as its system Pseudomonas aeruginosa. The series can be described thus: Agar well diffusion. Type of series: cell-based. The conditions noted are these: 20 µg/mL, read-out: Inhibition Zone.
Excerpt: as §3, with “For bacterial ones, preinoculum was prepared using Nuitrent broth medium (Codalab, Spain) at 37 °C for 24 h. while the fungal pathogens were activated using Potato Dextrose broth (Codalab, Spain) at 28 °C for 48 h.” left out

Series [18] deals with Staphylococcus aureus. The series can be described thus: Agar well diffusion. Type of series: cell-based.
Excerpt: as §3, with “For bacterial ones, preinoculum was prepared using Nuitrent broth medium (Codalab, Spain) at 37 °C for 24 h. while the fungal pathogens were activated using Potato Dextrose broth (Codalab, Spain) at 28 °C for 48 h.” left out

Series [19] relates to HCT-116 (human colon cancer). The series can be described thus: MTT cytotoxicity assay. Type of series: cell-based. The conditions noted are these: 48 h. Here is the method:
(§6) The MTT 3-(4,5-dimethylthiazol-2-yl)-2,5-diphenyl-tetrazolium bromide (Bio Basic Canada Inc. Toronto, Canada) assay was used to assess cell viability. The procedures were carried out in a biosafety class II sterile laminar air flow cabinet (Baker, SG403INT; Sanford, ME, USA). […] Cells were seeded at a density of (10^4 cells/well) into 96-well micro titer polypropylene plates and left to adhere for 24 h. The media was aspirated and the test chemicals were given to the cells in a single dose of 100 µM in DMSO. After 48 h of incubation, 40 µL of MTT salt ([…]) was applied to each well. […] Instead of the tested substances, the medium was applied to the untreated cells (negative control). […] The testing substance was dissolved in dimethylsulfoxide (DMSO), and its final concentration in the cells was less than 0.2%. The solvent concentration was the same for all medications and between the control and drug treatments at the same dilution.

The test system of series [20] is HCT-116 cells. The series can be described thus: Annexin V-FITC/PI necrosis cell apoptosis assay. The conditions noted are these: % of population. The format is cell-based, human. The method, then:
as §2

A short description of series [21]: MTT cytotoxicity assay. Type of series: cell-based, human. The conditions noted are these: human, BJ-1 normal skin fibroblast cells, BJ-1 normal cells. The method, then: as §6

`O=C(Nc1ccccc1)N1CCCCC1` [Compound 22, N-phenylpiperidine-1-carboxamide] returned a melting point of 190 to 192 °C. Moreover, the MIC in [1] was 10 µg/mL (≈ 49 µM). In addition, the MIC in series [2] was 40 µg/mL (≈ 196 µM). Besides, the MIC in series [3] was found to be 80 µg/mL (≈ 392 µM). Moreover, the MIC in series [4] is 40 µg/mL (≈ 196 µM). Further, in series [5] (Homo sapiens, MCF7, 48 h), the midpoint of inhibition, the IC50, lay at 91.6 ± 0.112 µM. The cytotoxicity at 100 µM in series [5] (Homo sapiens) is no less than 51%. Further, in series [5], the IC50 amounted to 57.9 ± 0.122 µM. In [6], this compound gave an early apoptosis of 7.93% and a late apoptosis of 1.1%. For the same compound, the zone of inhibition at 20 µg/mL in series [7] worked out at 5 mm. Also, the zone of inhibition at 20 µg/mL in series [8] amounted to 4 mm. The Lipid peroxidation in series [9] is 264.8%. The Lipid peroxidation in series [10] came out at 191.3%. Besides, the Lipid peroxidation in series [11] was determined as 170%. In [12], the Lipid peroxidation is recorded as 273.4%. The MIC in [13] came out at 5 µg/mL (≈ 24.5 µM). The MIC in series [14] was found to be 10 µg/mL (≈ 49 µM). For the same compound, the zone of inhibition at 20 µg/mL in series [15] was determined as 5 mm. Besides, the zone of inhibition at 20 µg/mL in series [16] came to 3 mm. In addition, the zone of inhibition at 20 µg/mL in series [17] was 3 mm. The compound further gave a zone of inhibition at 20 µg/mL in series [18] of 2 mm.

Regarding `Cc1ccc(S(=O)(=O)NC(=O)NC23CC4CC(CC(C4)C2)C3)cc1` [Compound 13, N-(adamantan-1-ylcarbamoyl)-4-methylbenzenesulfonamide], the half-maximal inhibitory concentration (IC50) came to 43.5 ± 0.15 µM in [19] (HCT-116, MTT) and 62.4 ± 0.128 µM in series [5] (Homo sapiens, MCF7, 48 h). Besides, the cytotoxicity at 100 µM was no less than 65% in series [19] (HCT-116, single dose 100 µM, read-out: Cytotoxicity (%)) and no less than 51% in [5] (Homo sapiens). For the same compound, the early apoptosis in series [6] was 2.24%; in series [20], 45.07%. Further, the late apoptosis in series [6] is 0.58%; in series [20], 0.42%. In addition, the zone of inhibition at 20 µg/mL came to 3 mm in [7]; 6 mm in series [15]; 2 mm in [16]; 3 mm in [17]; 2 mm in series [18]. Also, the cytotoxicity at 48 h, 100 µM in series [21] is 2.7%.

For the compound `Cc1ccc(NC(=O)N2CCOCC2)cc1` [Compound 15, N-(p-tolyl)morpholine-4-carboxamide], the melting point fell in the range of 165 to 167 °C. Besides, in [1], the MIC turned out to be 40 µg/mL (≈ 182 µM). Besides, the MIC in [2] turned out to be 20 µg/mL (≈ 90.8 µM). The MIC in [3] is 20 µg/mL (≈ 90.8 µM). The MIC in series [4] was determined as 40 µg/mL (≈ 182 µM). Besides, the zone of inhibition at 20 µg/mL in series [7] was 4 mm. In series [8], the zone of inhibition at 20 µg/mL is 2 mm. For the same compound, the Lipid peroxidation in series [9] stood at 157.1%. In [10], this compound registered a Lipid peroxidation of 108.6%. In addition, in series [11], the Lipid peroxidation is on record as 107%. For the same compound, the Lipid peroxidation in [12] came to 128.9%. For the same compound, the MIC in [13] was determined as 10 µg/mL (≈ 45.4 µM). Besides, in series [14], the MIC was found to be 20 µg/mL (≈ 90.8 µM). Further, the zone of inhibition at 20 µg/mL in series [15] came to 2 mm. In addition, the zone of inhibition at 20 µg/mL in series [16] was 4 mm. The zone of inhibition at 20 µg/mL in series [17] is 4 mm. For the same compound, the zone of inhibition at 20 µg/mL in [18] amounted to 2 mm.
